Data as given in doi:10.1101/2021.04.08.439011v1 (biorxiv, 2021).

Legend:
Conditions in all cases: 0.1 µM; binder
ACVR1 = ACVR1 (Homo sapiens, UniProt Q04771)
CAMK2D = CAMK2D (Homo sapiens, UniProt Q13557)
CAMKK1 = CAMKK1 (Homo sapiens, UniProt Q8N5S9)
CDC2L5 = CDC2L5 (Homo sapiens, UniProt Q14004)
CDKL3 = CDKL3 (Homo sapiens, UniProt Q8IVW4)
CSNK1G1 = CSNK1G1 (Homo sapiens, UniProt Q9HCP0)
DDR2 = DDR2 (Homo sapiens, UniProt Q16832)
DYRK2 = DYRK2 (Homo sapiens, UniProt Q92630)
EGFR(T790M) = EGFR(T790M) (Homo sapiens, UniProt P00533, T790M)
FES = FES (Homo sapiens, UniProt P07332)
FGFR1 = FGFR1 (Homo sapiens, UniProt P11362)
FGFR3 = FGFR3 (Homo sapiens, UniProt P22607)
Sequence of FGFR3 (P22607 whole entry): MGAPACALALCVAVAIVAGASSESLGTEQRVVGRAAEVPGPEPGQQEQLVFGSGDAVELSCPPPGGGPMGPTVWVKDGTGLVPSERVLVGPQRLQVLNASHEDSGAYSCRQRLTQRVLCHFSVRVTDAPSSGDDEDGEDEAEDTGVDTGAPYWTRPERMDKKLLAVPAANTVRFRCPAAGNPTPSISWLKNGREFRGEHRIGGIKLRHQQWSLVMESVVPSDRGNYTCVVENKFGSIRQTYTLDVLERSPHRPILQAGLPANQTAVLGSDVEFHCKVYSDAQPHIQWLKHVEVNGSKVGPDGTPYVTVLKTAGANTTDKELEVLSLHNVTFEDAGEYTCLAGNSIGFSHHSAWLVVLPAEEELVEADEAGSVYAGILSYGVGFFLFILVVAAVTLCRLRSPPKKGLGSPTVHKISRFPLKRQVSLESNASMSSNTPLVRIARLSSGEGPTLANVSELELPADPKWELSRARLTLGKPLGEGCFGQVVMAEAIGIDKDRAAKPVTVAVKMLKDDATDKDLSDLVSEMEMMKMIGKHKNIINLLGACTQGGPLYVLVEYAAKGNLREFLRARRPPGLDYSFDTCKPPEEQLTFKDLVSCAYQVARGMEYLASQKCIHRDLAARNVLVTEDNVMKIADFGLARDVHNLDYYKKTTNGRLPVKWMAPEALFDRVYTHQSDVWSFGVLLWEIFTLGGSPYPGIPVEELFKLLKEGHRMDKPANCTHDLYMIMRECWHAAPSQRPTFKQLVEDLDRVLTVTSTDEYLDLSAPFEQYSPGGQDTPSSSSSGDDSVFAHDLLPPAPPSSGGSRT

FGR = FGR (Homo sapiens, UniProt P09769)
HASPIN = HASPIN (Homo sapiens, UniProt Q8TF76)
MAP4K3 = MAP4K3 (Homo sapiens, UniProt Q8IVH8)
MARK4 = MARK4 (Homo sapiens, UniProt Q96L34)
MEK5 = MEK5 (Homo sapiens, UniProt Q13163)
MLK1 = MLK1 (Homo sapiens, UniProt P80192)
MTOR = MTOR (Homo sapiens, UniProt P42345)
PAK2 = PAK2 (Homo sapiens, UniProt Q13177)
PDGFRB = PDGFRB (Homo sapiens, UniProt P09619)
PIK3CG = PIK3CG (Homo sapiens, UniProt P48736)
Sequence of PIK3CG (P48736 whole entry): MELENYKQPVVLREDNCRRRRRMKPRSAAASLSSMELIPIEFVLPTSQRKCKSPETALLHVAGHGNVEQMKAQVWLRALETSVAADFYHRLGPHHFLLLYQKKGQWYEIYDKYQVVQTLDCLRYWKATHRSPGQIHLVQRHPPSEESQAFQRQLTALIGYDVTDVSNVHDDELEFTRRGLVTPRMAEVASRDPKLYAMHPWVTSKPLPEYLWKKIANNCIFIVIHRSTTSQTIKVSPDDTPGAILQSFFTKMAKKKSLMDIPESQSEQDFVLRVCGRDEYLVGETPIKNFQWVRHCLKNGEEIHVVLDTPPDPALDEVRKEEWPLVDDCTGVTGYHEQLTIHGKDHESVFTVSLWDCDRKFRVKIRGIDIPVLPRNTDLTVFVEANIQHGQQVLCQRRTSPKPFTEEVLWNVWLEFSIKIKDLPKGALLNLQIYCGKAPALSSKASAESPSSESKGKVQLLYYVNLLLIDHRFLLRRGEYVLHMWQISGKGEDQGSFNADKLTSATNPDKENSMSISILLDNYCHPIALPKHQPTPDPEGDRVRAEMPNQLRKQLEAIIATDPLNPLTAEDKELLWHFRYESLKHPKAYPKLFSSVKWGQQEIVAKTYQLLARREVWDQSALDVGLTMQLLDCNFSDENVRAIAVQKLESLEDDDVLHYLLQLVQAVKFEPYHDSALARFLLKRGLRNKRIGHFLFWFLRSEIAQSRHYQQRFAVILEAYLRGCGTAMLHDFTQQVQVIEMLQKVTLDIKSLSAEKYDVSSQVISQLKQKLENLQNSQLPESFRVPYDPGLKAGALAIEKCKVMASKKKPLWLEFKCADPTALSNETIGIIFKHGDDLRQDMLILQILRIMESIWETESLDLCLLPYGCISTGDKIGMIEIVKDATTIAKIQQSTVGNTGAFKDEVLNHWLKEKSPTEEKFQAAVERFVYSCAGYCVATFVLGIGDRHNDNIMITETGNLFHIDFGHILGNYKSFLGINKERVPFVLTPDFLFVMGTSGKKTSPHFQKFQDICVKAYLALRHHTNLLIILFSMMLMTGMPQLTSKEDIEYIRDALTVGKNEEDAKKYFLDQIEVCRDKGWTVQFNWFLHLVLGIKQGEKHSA

PIM2 = PIM2 (Homo sapiens, UniProt Q9P1W9)
Sequence of PIM2 (Q9P1W9 whole entry): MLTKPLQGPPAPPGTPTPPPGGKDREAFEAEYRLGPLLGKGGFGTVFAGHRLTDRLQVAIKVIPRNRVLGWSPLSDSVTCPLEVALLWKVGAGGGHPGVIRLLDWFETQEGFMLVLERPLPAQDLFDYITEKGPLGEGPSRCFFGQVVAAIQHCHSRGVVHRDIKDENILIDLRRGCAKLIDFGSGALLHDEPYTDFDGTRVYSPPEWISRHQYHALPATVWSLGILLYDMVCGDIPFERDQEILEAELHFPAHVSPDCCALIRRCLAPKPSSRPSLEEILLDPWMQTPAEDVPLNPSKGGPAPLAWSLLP

PIM3 = PIM3 (Homo sapiens, UniProt Q86V86)
RIOK1 = RIOK1 (Homo sapiens, UniProt Q9BRS2)
Sequence of RIOK1 (Q9BRS2 whole entry): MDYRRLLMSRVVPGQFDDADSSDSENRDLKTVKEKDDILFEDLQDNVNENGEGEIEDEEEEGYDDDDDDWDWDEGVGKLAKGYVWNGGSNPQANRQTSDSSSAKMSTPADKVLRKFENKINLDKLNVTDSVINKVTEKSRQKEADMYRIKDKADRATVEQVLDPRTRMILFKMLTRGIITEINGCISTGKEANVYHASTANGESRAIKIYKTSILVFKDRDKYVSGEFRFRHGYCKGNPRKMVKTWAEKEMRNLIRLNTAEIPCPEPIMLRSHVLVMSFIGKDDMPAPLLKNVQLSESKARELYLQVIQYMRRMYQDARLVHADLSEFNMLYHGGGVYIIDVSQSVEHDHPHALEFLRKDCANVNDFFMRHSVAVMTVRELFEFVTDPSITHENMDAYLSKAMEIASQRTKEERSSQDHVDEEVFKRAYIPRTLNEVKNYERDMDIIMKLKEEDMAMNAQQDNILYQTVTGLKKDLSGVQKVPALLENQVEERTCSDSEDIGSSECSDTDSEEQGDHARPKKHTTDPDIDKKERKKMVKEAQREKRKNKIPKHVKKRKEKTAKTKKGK

ROCK2 = ROCK2 (Homo sapiens, UniProt O75116)
Sequence of ROCK2 (O75116 whole entry): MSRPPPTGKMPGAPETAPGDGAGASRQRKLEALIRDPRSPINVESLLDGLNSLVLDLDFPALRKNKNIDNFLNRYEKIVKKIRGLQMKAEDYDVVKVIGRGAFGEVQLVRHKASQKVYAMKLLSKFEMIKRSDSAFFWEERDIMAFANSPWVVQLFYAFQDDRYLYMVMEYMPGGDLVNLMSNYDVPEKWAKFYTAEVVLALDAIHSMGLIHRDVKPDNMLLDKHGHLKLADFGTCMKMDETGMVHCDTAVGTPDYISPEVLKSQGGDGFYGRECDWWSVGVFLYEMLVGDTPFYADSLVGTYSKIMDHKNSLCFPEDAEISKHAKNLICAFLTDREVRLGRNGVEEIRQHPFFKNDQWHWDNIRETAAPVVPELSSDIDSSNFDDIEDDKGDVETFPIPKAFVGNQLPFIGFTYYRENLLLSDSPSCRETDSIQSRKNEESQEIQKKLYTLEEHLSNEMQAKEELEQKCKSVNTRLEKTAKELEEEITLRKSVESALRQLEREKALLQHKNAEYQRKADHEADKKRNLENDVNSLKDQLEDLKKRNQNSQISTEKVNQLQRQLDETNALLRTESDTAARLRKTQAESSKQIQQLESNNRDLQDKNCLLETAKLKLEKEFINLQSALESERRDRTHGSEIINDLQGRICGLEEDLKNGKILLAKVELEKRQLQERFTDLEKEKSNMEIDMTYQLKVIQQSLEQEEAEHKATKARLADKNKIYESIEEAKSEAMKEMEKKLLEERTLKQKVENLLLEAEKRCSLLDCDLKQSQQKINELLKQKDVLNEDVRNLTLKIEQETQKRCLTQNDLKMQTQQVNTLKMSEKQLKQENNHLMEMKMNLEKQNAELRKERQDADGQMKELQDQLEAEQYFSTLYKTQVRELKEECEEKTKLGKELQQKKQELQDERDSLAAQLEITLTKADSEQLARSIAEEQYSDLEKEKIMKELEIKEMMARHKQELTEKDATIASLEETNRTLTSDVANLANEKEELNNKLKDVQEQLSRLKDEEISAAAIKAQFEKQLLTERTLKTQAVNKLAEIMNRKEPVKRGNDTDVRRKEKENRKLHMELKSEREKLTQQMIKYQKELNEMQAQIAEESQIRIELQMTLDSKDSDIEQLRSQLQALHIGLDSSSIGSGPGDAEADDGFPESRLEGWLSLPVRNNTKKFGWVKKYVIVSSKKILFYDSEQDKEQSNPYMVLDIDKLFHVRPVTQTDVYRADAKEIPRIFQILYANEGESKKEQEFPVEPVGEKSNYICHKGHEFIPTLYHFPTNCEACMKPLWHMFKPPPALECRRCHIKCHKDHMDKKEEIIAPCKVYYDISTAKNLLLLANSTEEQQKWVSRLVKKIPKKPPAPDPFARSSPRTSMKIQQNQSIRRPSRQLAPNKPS

SIK2 = SIK2 (Homo sapiens, UniProt Q9H0K1)
SRPK2 = SRPK2 (Homo sapiens, UniProt P78362)
TGFBR1 = TGFBR1 (Homo sapiens, UniProt P36897)
TSSK3 = TSSK3 (Homo sapiens, UniProt Q96PN8)
WNK4 = WNK4 (Homo sapiens, UniProt Q96J92)
YANK2 = YANK2 (Homo sapiens, UniProt Q9NY57)

Sequence of CAMK2D (Q13557 whole entry): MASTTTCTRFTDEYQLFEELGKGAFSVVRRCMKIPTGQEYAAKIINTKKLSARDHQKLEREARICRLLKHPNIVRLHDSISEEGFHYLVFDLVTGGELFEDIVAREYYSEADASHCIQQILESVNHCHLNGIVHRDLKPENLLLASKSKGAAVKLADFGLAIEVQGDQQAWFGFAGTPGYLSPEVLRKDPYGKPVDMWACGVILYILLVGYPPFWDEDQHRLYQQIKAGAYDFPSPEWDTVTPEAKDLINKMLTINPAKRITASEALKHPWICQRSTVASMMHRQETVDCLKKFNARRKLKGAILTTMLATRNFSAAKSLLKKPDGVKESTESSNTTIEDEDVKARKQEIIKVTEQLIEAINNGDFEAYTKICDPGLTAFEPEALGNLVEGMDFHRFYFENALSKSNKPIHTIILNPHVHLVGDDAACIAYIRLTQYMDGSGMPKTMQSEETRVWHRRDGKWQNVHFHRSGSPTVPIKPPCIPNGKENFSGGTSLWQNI

In the case of `CNc1ncc2cc(-c3ccc(-c4cccc(C)n4)cc3Cl)c(=O)n(C[C@H]3OC[C@H](N)CO3)c2n1` [compound 6, G-5555], the “Percent Control” value (ACVR1) is reported as 97%, the “Percent Control” value (CAMK2D) is reported as 100% and the “Percent Control” value (CAMKK1) is reported as 100%. For the same molecule, the “Percent Control” value (CDC2L5) was 79%, the “Percent Control” value (CDKL3) was 89% and the “Percent Control” value (CSNK1G1) was 100%. For the same molecule, the “Percent Control” value (DDR2) was 88%, the “Percent Control” value (DYRK2) was 100% and the “Percent Control” value (EGFR(T790M)) was 100%. For the same molecule, the “Percent Control” value (FES) was 100%, the “Percent Control” value (FGFR1) was 100% and the “Percent Control” value (FGFR3) was 100%. For the same molecule, the “Percent Control” value (FGR) was 100%, the “Percent Control” value (HASPIN) was 87% and the “Percent Control” value (MAP4K3) was 85%. The “Percent Control” value (MARK4) was 100%, the “Percent Control” value (MEK5) was 13% and the “Percent Control” value (MLK1) was 100%. The “Percent Control” value (MTOR) was 83%, the “Percent Control” value (PAK2) was 13% and the “Percent Control” value (PDGFRB) was 97%. For the same molecule, the “Percent Control” value (PIK3CG) was 87%, the “Percent Control” value (PIM2) was 100% and the “Percent Control” value (PIM3) was 100%. The “Percent Control” value (RIOK1) was 100%, the “Percent Control” value (ROCK2) was 94% and the “Percent Control” value (SIK2) was 6.5%. The “Percent Control” value (SRPK2) was 98%, the “Percent Control” value (TGFBR1) was 99% and the “Percent Control” value (TSSK3) was 100%. The “Percent Control” value (WNK4) was 96% and the “Percent Control” value (YANK2) was 3.5%.
